Laboratory results taken from PubChem BioAssay AID248 (DTP/NCI, 2004).
“And” between values parts separate entries of the source, which are not always exact repeats. Identical values can stand only once. Inconclusive results and toxic doses are left out.

Tested on: L1210 leukemia ip in BDF1 mice, survival T/C
Experiment: NCI In Vivo Anticancer Drug Screen. Data for tumor model L1210 Leukemia (intraperitoneal) in B6D2F1 (BDF1) mice
Conditions: endpoint: mean survival time, higher = longer survival
In short: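 In this screen, tumor-bearing mice given compound are compared to those given vehicle, and their survival values are reported as a treated-to-control quotient.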

[1] = dose: 100.0 mg/kg/injection, schedule: Q01DX001 (ip), vehicle: carboxymethylcellulose (CMC)
[2] = dose: 100.0 mg/kg/injection, schedule: Q01DX009 (ip), vehicle: saline with Tween-80
[3] = dose: 200.0 mg/kg/injection, schedule: Q01DX009 (ip), vehicle: saline with Tween-80
[4] = dose: 100.0 mg/kg/injection, schedule: Q01DX001 (ip), vehicle: saline with Tween-80
[5] = dose: 100.0 mg/kg/injection, schedule: Q04DX003 (ip), vehicle: saline with Tween-80
[6] = dose: 200.0 mg/kg/injection, schedule: Q04DX003 (ip), vehicle: saline with Tween-80
[7] = dose: 400.0 mg/kg/injection, schedule: Q04DX003 (ip), vehicle: saline with Tween-80
[8] = dose: 50.0 mg/kg/injection, schedule: Q01DX009 (ip), vehicle: saline with Tween-80

**Q.** For `Cc1c(O)ccc(=O)n1O`, which T/C (dose: 10.4 mg/kg/injection, schedule: Q03HX024 (ip), vehicle: Klucel (hydroxypropylcellulose) (HPC)) is on record?
**A.** 97 % of control

**Q.** What about the T/C (dose: 12.0 mg/kg/injection, schedule: Q01DX009 (ip), vehicle: Klucel (hydroxypropylcellulose) (HPC)) of the same compound?
**A.** 107 % of control

**Q.** And the T/C (dose: 15.6 mg/kg/injection, schedule: Q03HX024 (ip), vehicle: Klucel (hydroxypropylcellulose) (HPC))?
**A.** 96 % of control

**Q.** What about the T/C (dose: 22.8 mg/kg/injection, schedule: Q03HX024 (ip), vehicle: Klucel (hydroxypropylcellulose) (HPC)) of the same compound?
**A.** 93 % of control

**Q.** And the T/C (dose: 24.0 mg/kg/injection, schedule: Q01DX009 (ip), vehicle: Klucel (hydroxypropylcellulose) (HPC))?
**A.** 102 % of control

**Q.** What about the T/C (dose: 34.8 mg/kg/injection, schedule: Q03HX024 (ip), vehicle: Klucel (hydroxypropylcellulose) (HPC)) of the same compound?
**A.** 98 % of control

**Q.** And the T/C (dose: 48.0 mg/kg/injection, schedule: Q01DX009 (ip), vehicle: Klucel (hydroxypropylcellulose) (HPC))?
**A.** 107 % of control

**Q.** What about the T/C (dose: 49.0 mg/kg/injection, schedule: Q01DX Z (ip), vehicle: carboxymethylcellulose (CMC)) of the same compound?
**A.** 109 % of control

**Q.** What about the T/C (dose: 49.0 mg/kg/injection, schedule: Q01DX Z (ip), vehicle: methylcellulose (MC)) of the same compound?
**A.** 100 % of control and 110 % of control

**Q.** What about the T/C (dose: 52.0 mg/kg/injection, schedule: Q01DX009 (ip), vehicle: Klucel (hydroxypropylcellulose) (HPC)) of the same compound?
**A.** 103 % of control

**Q.** What about the T/C (dose: 52.0 mg/kg/injection, schedule: Q03HX024 (ip), vehicle: Klucel (hydroxypropylcellulose) (HPC)) of the same compound?
**A.** 100 % of control and 105 % of control

**Q.** And the T/C (dose: 62.0 mg/kg/injection, schedule: Q03HX024 (ip), vehicle: saline with Tween-80)?
**A.** 92 % of control

**Q.** What about the T/C (dose: 73.0 mg/kg/injection, schedule: Q01DX Z (ip), vehicle: carboxymethylcellulose (CMC)) of the same compound?
**A.** 111 % of control

**Q.** And the T/C (dose: 73.0 mg/kg/injection, schedule: Q01DX Z (ip), vehicle: methylcellulose (MC))?
**A.** 93 % of control

**Q.** What about the T/C (dose: 89.0 mg/kg/injection, schedule: Q01DX001 (ip), vehicle: carboxymethylcellulose (CMC)) of the same compound?
**A.** 106 % of control

**Q.** And the T/C (dose: 96.0 mg/kg/injection, schedule: Q03HX024 (ip), vehicle: Klucel (hydroxypropylcellulose) (HPC))?
**A.** 100 % of control

**Q.** What about the T/C [1] of the same compound?
**A.** 113 % of control

**Q.** And the T/C (dose: 100.0 mg/kg/injection, schedule: Q01DX001 (ip), vehicle: saline)?
**A.** 112 % of control

**Q.** What about the T/C (dose: 100.0 mg/kg/injection, schedule: Q01DX009 (ip), vehicle: Klucel (hydroxypropylcellulose) (HPC)) of the same compound?
**A.** 115 % of control

**Q.** What about the T/C (dose: 100.0 mg/kg/injection, schedule: Q04DX003 (ip), vehicle: acetone) of the same compound?
**A.** 108 % of control

**Q.** And the T/C (dose: 104.0 mg/kg/injection, schedule: Q01DX001 (ip), vehicle: Klucel (hydroxypropylcellulose) (HPC))?
**A.** 103 % of control

**Q.** What about the T/C (dose: 104.0 mg/kg/injection, schedule: Q04DX003 (ip), vehicle: Klucel (hydroxypropylcellulose) (HPC)) of the same compound?
**A.** 95 % of control

**Q.** And the T/C (dose: 110.0 mg/kg/injection, schedule: Q01DX Z (ip), vehicle: carboxymethylcellulose (CMC))?
**A.** 151 % of control

**Q.** What about the T/C (dose: 110.0 mg/kg/injection, schedule: Q01DX Z (ip), vehicle: methylcellulose (MC)) of the same compound?
**A.** 94 % of control

**Q.** And the T/C (dose: 110.0 mg/kg/injection, schedule: Q01DX Z (ip), vehicle: saline)?
**A.** 102 % of control

**Q.** What about the T/C (dose: 125.0 mg/kg/injection, schedule: Q03HX024 (ip), vehicle: saline with Tween-80) of the same compound?
**A.** 102 % of control

**Q.** And the T/C (dose: 156.0 mg/kg/injection, schedule: Q01DX001 (ip), vehicle: Klucel (hydroxypropylcellulose) (HPC))?
**A.** 97 % of control

**Q.** And the T/C (dose: 156.0 mg/kg/injection, schedule: Q04DX003 (ip), vehicle: Klucel (hydroxypropylcellulose) (HPC))?
**A.** 103 % of control

**Q.** And the T/C (dose: 165.0 mg/kg/injection, schedule: Q01DX Z (ip), vehicle: carboxymethylcellulose (CMC))?
**A.** 152 % of control

**Q.** What about the T/C (dose: 165.0 mg/kg/injection, schedule: Q01DX Z (ip), vehicle: methylcellulose (MC)) of the same compound?
**A.** 122 % of control

**Q.** And the T/C (dose: 165.0 mg/kg/injection, schedule: Q01DX Z (ip), vehicle: saline)?
**A.** 104 % of control

**Q.** What about the T/C (dose: 200.0 mg/kg/injection, schedule: Q01DX001 (ip), vehicle: carboxymethylcellulose (CMC)) of the same compound?
**A.** 112 % of control

**Q.** What about the T/C (dose: 200.0 mg/kg/injection, schedule: Q01DX001 (ip), vehicle: saline) of the same compound?
**A.** 107 % of control

**Q.** And the T/C (dose: 200.0 mg/kg/injection, schedule: Q01DX009 (ip), vehicle: Klucel (hydroxypropylcellulose) (HPC))?
**A.** 108 % of control

**Q.** And the T/C (dose: 200.0 mg/kg/injection, schedule: Q04DX003 (ip), vehicle: acetone)?
**A.** 107 % of control

**Q.** What about the T/C (dose: 228.0 mg/kg/injection, schedule: Q01DX001 (ip), vehicle: Klucel (hydroxypropylcellulose) (HPC)) of the same compound?
**A.** 101 % of control

**Q.** What about the T/C (dose: 228.0 mg/kg/injection, schedule: Q04DX003 (ip), vehicle: Klucel (hydroxypropylcellulose) (HPC)) of the same compound?
**A.** 98 % of control

**Q.** What about the T/C (dose: 300.0 mg/kg/injection, schedule: Q01DX001 (ip), vehicle: carboxymethylcellulose (CMC)) of the same compound?
**A.** 112 % of control

**Q.** What about the T/C (dose: 348.0 mg/kg/injection, schedule: Q01DX001 (ip), vehicle: Klucel (hydroxypropylcellulose) (HPC)) of the same compound?
**A.** 108 % of control

**Q.** What about the T/C (dose: 348.0 mg/kg/injection, schedule: Q04DX003 (ip), vehicle: Klucel (hydroxypropylcellulose) (HPC)) of the same compound?
**A.** 104 % of control

**Q.** And the T/C (dose: 400.0 mg/kg/injection, schedule: Q01DX001 (ip), vehicle: carboxymethylcellulose (CMC))?
**A.** 111 % of control

**Q.** What about the T/C (dose: 400.0 mg/kg/injection, schedule: Q01DX001 (ip), vehicle: saline) of the same compound?
**A.** 104 % of control

**Q.** What about the T/C (dose: 400.0 mg/kg/injection, schedule: Q01DX009 (ip), vehicle: Klucel (hydroxypropylcellulose) (HPC)) of the same compound?
**A.** 104 % of control

**Q.** And the T/C (dose: 400.0 mg/kg/injection, schedule: Q04DX003 (ip), vehicle: acetone)?
**A.** 103 % of control

**Q.** What about the T/C (dose: 520.0 mg/kg/injection, schedule: Q01DX001 (ip), vehicle: Klucel (hydroxypropylcellulose) (HPC)) of the same compound?
**A.** 106 % of control

**Q.** How did the T/C (dose: 100.0 mg/kg/injection, schedule: Q04DX003 (ip), vehicle: saline) turn out when `OCC(O)COc1cccc2cccnc12` (stereo not drawn) was run?
**A.** 110 % of control

**Q.** And the T/C (dose: 200.0 mg/kg/injection, schedule: Q04DX003 (ip), vehicle: saline)?
**A.** 101 % of control

**Q.** What about the T/C (dose: 400.0 mg/kg/injection, schedule: Q04DX003 (ip), vehicle: saline) of the same compound?
**A.** 103 % of control

**Q.** Which results are given for `CCOC(CS(=O)(=O)CC(N)=O)OCC`?
**A.** T/C [2]: 97 % of control; T/C [3]: 95 % of control; T/C (dose: 400.0 mg/kg/injection, schedule: Q01DX009 (ip), vehicle: saline with Tween-80): 92 % of control

**Q.** Which T/C (dose: 75.0 mg/kg/injection, schedule: Q04DX003 (ip), vehicle: saline with Tween-80) does the source give for `Oc1c(C(c2ccccc2)N2CCCC2)ccc2ccccc12` (stereo not drawn) here?
**A.** 100 % of control

**Q.** And the T/C (dose: 150.0 mg/kg/injection, schedule: Q04DX003 (ip), vehicle: saline with Tween-80)?
**A.** 92 % of control

**Q.** What about the T/C (dose: 300.0 mg/kg/injection, schedule: Q04DX003 (ip), vehicle: saline with Tween-80) of the same compound?
**A.** 96 % of control

**Q.** `COc1cccc2c1C(=O)c1c(O)c3c(c(O)c1C2=O)CC(O)(C(C)=O)CC3OC1CC2NC(=O)OC2C(C)O1` (stereo not drawn) was tested. Which T/C [4] did it give?
**A.** 114 % of control

**Q.** Which results are given for `O=S(=O)(CCCCCl)Nc1ccc(NS(=O)(=O)CCCCCl)cc1`?
**A.** T/C [4]: 102 % of control; T/C [5]: 97 % of control; T/C (dose: 200.0 mg/kg/injection, schedule: Q01DX001 (ip), vehicle: saline with Tween-80): 92 % of control; T/C [6]: 90 % of control; T/C (dose: 400.0 mg/kg/injection, schedule: Q01DX001 (ip), vehicle: saline with Tween-80): 92 % of control; T/C [7]: 92 % of control

**Q.** `CCCCCCC(C)OC(=O)CCl` (stereo not drawn) was tested. Which T/C [5] did it give?
**A.** 102 % of control

**Q.** What about the T/C [6] of the same compound?
**A.** 104 % of control

**Q.** And the T/C [7]?
**A.** 109 % of control

**Q.** Which results are given for `O=C(O)c1ccccc1C(=O)NCCCc1ccccc1`?
**A.** T/C (dose: 100.0 mg/kg/injection, schedule: Q01DX001 (ip), vehicle: other): 98 % of control; T/C (dose: 200.0 mg/kg/injection, schedule: Q01DX001 (ip), vehicle: other): 98 % of control; T/C (dose: 400.0 mg/kg/injection, schedule: Q01DX001 (ip), vehicle: other): 96 % of control

**Q.** What does the source list for `COc1ccc(N)c(CC2c3ccccc3CCN2C)c1` (stereo not drawn)?
**A.** T/C (dose: 10.0 mg/kg/injection, schedule: Q01DX001 (ip), vehicle: carboxymethylcellulose (CMC)): 103 % of control; T/C (dose: 20.0 mg/kg/injection, schedule: Q01DX001 (ip), vehicle: carboxymethylcellulose (CMC)): 105 % of control; T/C (dose: 40.0 mg/kg/injection, schedule: Q01DX001 (ip), vehicle: carboxymethylcellulose (CMC)): 105 % of control; T/C (dose: 80.0 mg/kg/injection, schedule: Q01DX001 (ip), vehicle: carboxymethylcellulose (CMC)): 100 % of control; T/C [1]: 96 % of control

**Q.** For `CCCCC(C)NC1=C(Cl)C(=O)c2ccccc2C1=O` (stereo not drawn), which T/C (dose: 25.0 mg/kg/injection, schedule: Q01DX009 (ip), vehicle: saline with Tween-80) is on record?
**A.** 101 % of control

**Q.** And the T/C [8]?
**A.** 93 % of control

**Q.** And the T/C [2]?
**A.** 87 % of control

**Q.** With `CN(C)C(=S)SC1OC(CO)C(SC(=S)N(C)C)OC1CO` (stereo not drawn) as the compound, how does the T/C [8] read?
**A.** 97 % of control

**Q.** What about the T/C [2] of the same compound?
**A.** 104 % of control

**Q.** And the T/C [3]?
**A.** 97 % of control
